Laboratory results reported in patent publication US9603862B2, “Activation and activators of SIRT5” (CORNELL UNIVERSITY, priority 2009, dated 2017).
Read-outs that look alike come from different tables or passages of the source. One block for each molecule: values may come before it.

Molecular target: T1, SIRT5 (Homo sapiens, UniProt Q9NXA8)
T1 sequence (Q9NXA8 37-310): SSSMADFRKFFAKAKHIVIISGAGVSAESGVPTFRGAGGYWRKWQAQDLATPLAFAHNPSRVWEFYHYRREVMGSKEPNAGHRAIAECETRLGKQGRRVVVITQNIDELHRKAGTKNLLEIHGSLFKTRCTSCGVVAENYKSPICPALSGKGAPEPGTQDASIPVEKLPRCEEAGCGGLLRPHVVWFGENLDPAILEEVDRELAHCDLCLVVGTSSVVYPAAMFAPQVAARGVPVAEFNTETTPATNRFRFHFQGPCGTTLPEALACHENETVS
Experiment: SIRT5 deacetylation activation assay (radiolabelled NAD+, DEAE-Sephadex column, turnover with vs without activator)
Type: biochemical
Experimental: The reactions were processed using DEAE columns. […]
Reactions containing NAD^+ including [2,8A^−3H]-NAD^+, peptide substrate, with or without activator in 100 mM phosphate buffer (pH 7.5) were initiated by addition of SIRT5 enzyme to a concentration of 10 μM. Reactions were incubated at 37° C. for 1 h and quenched by addition of trifluoroacetic acid to pH 2. After centrifugation to remove the precipitates, reactions were loaded onto columns containing pre-equilibrated DEAE-Sephadex (equilibrated with 5 mM ammonium acetate pH 7). The reaction mixture was then eluted with eight fractions of 20 mM ammonium acetate pH 7 and three fractions of 300 mM ammonium acetate pH 7. The radioactivity contained in the eluents was then quantified by scintillation counter. Radiolabelled NAD^+ eluted in the 20 mM washes, while products ADPR and AADPR eluted in the 300 mM fractions. Radioactivity in the remaining NAD^+ fractions and the radioactivity in the product fractions were then converted to a turnover rate (1/s) by adjustment for specific radioactivity and enzyme concentration. The turnovers from the reaction with or without the activators were compared to show the percentage of activation.
Test compounds were assayed against SIRT5 as described in Example 1.

[1] = FIG. 4, 500 μM JB12, 500 μM NAD+, 1 mM of activator compound
[2] = FIG. 4, 500 μM JB12, 500 μM NAD+, 1 mM of activator compound, read-out: Km of activator for activation of SIRT5-catalyzed deacetylation
[3] = FIG. 3, varying concentrations of activator, 500 μM NAD+, 500 μM JB12, DEAE columns
[4] = FIG. 3, varying concentrations of activator, 500 μM NAD+, 500 μM JB12, DEAE columns, read-out: Km of activator for activation of SIRT5-catalyzed deacetylation (Michaelis Menten curve fitting)

SIRT5 % activated (at 800 μM test compound): 100% activated at 800 μM
Structure (SMILES): NC(=O)c1ccc[n+]([C@@H]2O[C@H](CO)C(O)C2O)c1 (stereo partly drawn)

SIRT5 % activated (at 600 μM test compound): 40% activated at 600 μM
Structure (SMILES): CCOC(=O)c1ccc[n+]([C@@H]2O[C@H](CO)C(O)C2O)c1 (stereo partly drawn)

SIRT5 % activated (at 600 μM test compound): 80% activated at 600 μM
Structure (SMILES): COC(=O)c1ccc[n+]([C@@H]2O[C@H](CO)C(O)C2O)c1 (stereo partly drawn)

Emax (FIG. 3, varying concentrations of activator, 500 μM NAD+, 500 μM JB12, DEAE columns, read-out: max activation of SIRT5 deacetylation): 200%
Structure (SMILES): NC(=O)c1ccc[n+]([C@@H]2O[C@H](CO)[C@@H](O)[C@H]2O)c1 [NR, nicotinamide riboside]

max activation of SIRT5 deacetylation [1]: 150% | Km [2]: 323 µM
Structure (SMILES): CCOC(=O)c1ccc[n+]([C@@H]2O[C@H](CO)[C@@H](O)[C@H]2O)c1 [O-ethyl NR, ethyl nicotinate riboside]

Continued, molecule first:

Structure (SMILES): COB(OC)c1ccc[n+]([C@H]2CC(O)[C@@H](COP(=O)([O-])O)O2)c1 (stereo partly drawn)
SIRT5 % activated (at 160 μM test compound): 50% activated at 160 μM

Structure (SMILES): NC(=O)c1ccc[n+]([C@@H]2O[C@H](CO)C(O)C2(F)F)c1 (stereo partly drawn)
SIRT5 % activated (at 2.4 mM test compound): 90% activated at 2.4 mM

Structure (SMILES): O=C(O)c1ccc[n+]([C@@H]2O[C@H](CO)C(O)C2O)c1 (stereo partly drawn)
SIRT5 % activated (at 800 μM test compound): 60% activated at 800 μM

Structure (SMILES): NC(=O)c1ccc[n+]([C@@H]2O[C@H](CO)C(O)C2Cl)c1 (stereo partly drawn)
SIRT5 % activated (at 1 mM test compound): 75% activated at 1 mM

Structure (SMILES): O=C([O-])c1ccc[n+]([C@@H]2O[C@H](CO)[C@@H](O)[C@H]2O)c1 [NaR, nicotinic acid riboside]
max activation of SIRT5 deacetylation [1]: 160% | Km [2]: 821 µM

Structure (SMILES): COC(=O)c1ccc[n+]([C@@H]2O[C@H](CO)[C@@H](O)[C@H]2O)c1 [O-methyl NR, methyl nicotinate riboside]
max activation of SIRT5 deacetylation [1]: 190% | Km [2]: 93 µM

Structure (SMILES): NC(=O)c1ccc[n+](C2O[C@H](CO)[C@@H](O)C2(F)F)c1 (stereo partly drawn) [gem-diF-NR, 1-(2′-deoxy-2′,2′-difluoro-ribofuranosyl)-nicotinamide]
max activation of SIRT5 deacetylation [3]: 120% | Km [4]: 50 µM

Structure (SMILES): NC(=O)c1ccc[n+](C2O[C@H](CO)[C@@H](O)[C@H]2Cl)c1 (stereo partly drawn) [ribo-Cl-NR, 1-(2′-deoxy-2′-chloro-ribofuranosyl)-nicotinamide]
max activation of SIRT5 deacetylation [3]: 125% | Km [4]: 95 µM
